Data taken from patent US11053454B2, “Fragrance compositions comprising essential oils and products comprising same for promoting wellness” (THIS WORKS PRODUCTS LIMITED, priority 2018, dated 2021).
Like-named read-outs stand apart in the source and are kept apart here.

System: primary olfactory cortex (piriform cortex)
Assay: fMRI connectivity analysis with piriform cortex as seed
Type: in vivo, human
Procedure: The pre-processed data were analyzed with the connectivity toolbox in SPM. The primary olfactory cortex (piriform cortex) was used as a seed and the connectivity from this very first olfactory target area to other areas in the brain was modeled. A statistical threshold of 0.05, FDR corrected, was used.

OCCc1ccccc1 [PEA, Phenylethylalcohol]
negative connectivity from the piriform cortex: negative connectivity to the posterior cingulate cortex
negative connectivity from the piriform cortex (listed as control odor): negative connectivity was detected to the left parietal frontal gyrus
overall connectivity: intensity (threshold 0.05 FDR corrected): 170
overall connectivity: nodes (threshold 0.05 FDR corrected): 41 nodes
